Data published in paper PMC10205683, “Structure Based Discovery of Inhibitors of CYP125 and CYP142 from Mycobacterium tuberculosis” (Chemistry (Weinheim an Der Bergstrasse, Germany), 2023).
In brackets after ≈: the same amount, converted by molar mass. Where two headings read alike, the source gives them in different places.

What was measured:
[1] = biological target: T1, CYP142 (Mycobacterium tuberculosis, UniProt P9WPL5); test: biochemical; details: UV-Vis spectroscopy
T1 sequence (P9WPL5 2-398): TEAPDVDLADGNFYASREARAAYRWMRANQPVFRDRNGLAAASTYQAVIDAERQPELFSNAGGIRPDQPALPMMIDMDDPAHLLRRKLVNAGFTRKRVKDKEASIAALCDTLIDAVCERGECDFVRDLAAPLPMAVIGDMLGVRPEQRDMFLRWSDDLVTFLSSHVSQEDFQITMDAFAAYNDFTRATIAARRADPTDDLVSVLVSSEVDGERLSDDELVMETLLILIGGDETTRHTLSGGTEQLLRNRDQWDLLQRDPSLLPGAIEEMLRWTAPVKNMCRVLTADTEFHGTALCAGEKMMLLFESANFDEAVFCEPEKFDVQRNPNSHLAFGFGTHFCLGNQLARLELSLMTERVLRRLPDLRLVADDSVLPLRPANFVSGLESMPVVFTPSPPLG

[2] = biological target: T2, CYP125 (Mycobacterium tuberculosis, UniProt P9WPP1); test: biochemical; format: binding; details: UV-Vis spectroscopy
T2 construct: encoding residues 18-433; twin-strep hexahistidine tag (TEV-cleavable) (N, cleaved yes); made in house; host or cells: E. coli C41(DE3), pET21a
T2 sequence (P9WPP1 18-433 limits assumed): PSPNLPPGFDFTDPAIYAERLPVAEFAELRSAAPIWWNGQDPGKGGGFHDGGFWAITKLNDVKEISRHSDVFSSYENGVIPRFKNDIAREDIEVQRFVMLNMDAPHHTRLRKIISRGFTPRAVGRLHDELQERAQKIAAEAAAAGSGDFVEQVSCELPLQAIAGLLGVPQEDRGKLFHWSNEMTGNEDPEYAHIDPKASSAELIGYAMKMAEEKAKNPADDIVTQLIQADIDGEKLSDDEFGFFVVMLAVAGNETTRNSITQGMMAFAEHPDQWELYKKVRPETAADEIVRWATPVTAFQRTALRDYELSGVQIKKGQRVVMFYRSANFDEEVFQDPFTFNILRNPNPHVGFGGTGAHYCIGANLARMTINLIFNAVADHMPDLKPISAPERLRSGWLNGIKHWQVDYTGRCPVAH

[3] = test system: Mtb strain K18b01MR; test: microbe, parasite or virus in culture; format: cell-based; details: Mycobacterium tuberculosis
[4] = test system: Mtb strain CDC1551; test: MIC determination against Mtb CDC1551 (clinical strain); format: cell-based; details: Mycobacterium tuberculosis
[5] = test system: Mtb strain KB019; test: microbe, parasite or virus in culture; format: cell-based; details: Mycobacterium tuberculosis
[6] = test system: Mtb H37Rv (ATCC 27294); test: MIC determination against Mtb H37Rv; format: cell-based, Mycobacterium tuberculosis
[7] = test system: Mtb strain K03b00DS; test: MIC determination against Mtb K03b00DS (DS); format: cell-based; details: Mycobacterium tuberculosis
[8] = test system: Mtb strain 028 K111; test: microbe, parasite or virus in culture; format: cell-based; details: Mycobacterium tuberculosis
[9] = test system: Mtb strain 53 K113; test: microbe, parasite or virus in culture; format: cell-based; details: Mycobacterium tuberculosis
[10] = test system: Mtb strain NIH_G269DR; test: microbe, parasite or virus in culture; format: cell-based; details: Mycobacterium tuberculosis
[11] = biological target: T1, CYP142; details: read-out: KD (CYP142); UV-Vis spectroscopy
[12] = Mycobacterium tuberculosis, 336 h
[13] = Mycobacterium tuberculosis, 168 h, Table S1, H37Rv, […], 1 Week

Question: With `COC(=O)c1cccc(-c2ccncc2)c1` [Compound 3] as the compound, how does the Kd [1] read?
Answer: Its Kd is 1500 nM.

Question: What about the Kd [2] of the same compound?
Answer: Its Kd is 146000 nM.

Question: How did the Kd [1] turn out when `COc1ccc(-c2ccncc2)cc1` [Compound 2] was run?
Answer: The Kd was 1600 ± 100 nM.

Question: And the Kd [2]?
Answer: Its Kd is 58500 ± 3800 nM.

Question: `Cc1cnc(-c2cc3cc(-c4ccncc4)ccc3n2CCC2CCNCC2)o1` [Compound 17] was tested. Which MIC ([3]; 168 h) did it give?
Answer: The MIC was 6.25 µM (≈ 2.42 µg/mL).

Question: And the MIC ([3]; 336 h)?
Answer: The MIC was 6.25 µM (≈ 2.42 µg/mL).

Question: What about the MIC ([4]; 168 h) of the same compound?
Answer: The MIC was 6.25 µM (≈ 2.42 µg/mL).

Question: What about the MIC ([4]; 336 h) of the same compound?
Answer: Its MIC is 6.25 µM (≈ 2.42 µg/mL).

Question: What about the MIC ([5]; KB019, 168 h) of the same compound?
Answer: Its MIC is 12.5 µM (≈ 4.83 µg/mL).

Question: What about the MIC ([5]; KB019, 336 h) of the same compound?
Answer: Its MIC is 19 µM (≈ 7.34 µg/mL).

Question: And the MIC [6, 12]?
Answer: Its MIC is 19 µM (≈ 7.34 µg/mL).

Question: What about the MIC ([7]; 168 h) of the same compound?
Answer: The MIC was 4.7 µM (≈ 1.82 µg/mL).

Question: And the MIC ([7]; 336 h)?
Answer: The MIC was 4.7 µM (≈ 1.82 µg/mL).

Question: And the MIC ([8]; 028K111, 168 h)?
Answer: Its MIC is 6.25 µM (≈ 2.42 µg/mL).

Question: And the MIC ([8]; 028K111, 336 h)?
Answer: Its MIC is 6.25 µM (≈ 2.42 µg/mL).

Question: What about the MIC ([9]; 53K113, 168 h) of the same compound?
Answer: The MIC was 6.25 µM (≈ 2.42 µg/mL).

Question: What about the MIC ([9]; 53K113, 336 h) of the same compound?
Answer: The MIC was 6.25 µM (≈ 2.42 µg/mL).

Question: And the Kd [1]?
Answer: Its Kd is 790 ± 50 nM.

Question: And the MIC ([10]; 168 h)?
Answer: Its MIC is 6.25 µM (≈ 2.42 µg/mL).

Question: And the MIC ([10]; 336 h)?
Answer: The MIC was 6.25 µM (≈ 2.42 µg/mL).

Question: And the Kd [2]?
Answer: The Kd was 5300 ± 200 nM.

Question: How did the Kd [1] turn out when `NCc1ccc(-c2cnns2)cc1` [Compound 1] was run?
Answer: Its Kd is 610 nM.

Question: What about the Kd [2] of the same compound?
Answer: Its Kd is 57700 nM.

Question: With `CCOC(=O)c1cc2cc(-c3ccncc3)ccc2n1CCN1CCOCC1` [Compound 12] as the compound, how does the Kd [1] read?
Answer: The Kd was 1100 ± 100 nM.

Question: And the Kd [2]?
Answer: Its Kd is 2800 ± 100 nM.

Question: Which MIC [6, 13] does the source give for `NNC(=O)c1ccncc1` [Isoniazid, reference compound] here?
Answer: Its MIC is 0.15 µM (≈ 0.0206 µg/mL).

Question: Which MIC ([3]; 168 h) does the source give for `CCCC(=O)c1cc2cc(-c3ccncc3)ccc2n1CCC1CCNCC1` [Compound 19] here?
Answer: The MIC was 6.25 µM (≈ 2.35 µg/mL).

Question: And the MIC ([3]; 336 h)?
Answer: The MIC was 6.25 µM (≈ 2.35 µg/mL).

Question: And the MIC ([4]; 168 h)?
Answer: Its MIC is 6.25 µM (≈ 2.35 µg/mL).

Question: What about the MIC ([4]; 336 h) of the same compound?
Answer: The MIC was 6.25 µM (≈ 2.35 µg/mL).

Question: And the MIC ([5]; KB019, 168 h)?
Answer: Its MIC is 12.5 µM (≈ 4.69 µg/mL).

Question: And the MIC ([5]; KB019, 336 h)?
Answer: The MIC was 19 µM (≈ 7.13 µg/mL).

Question: What about the MIC [6] of the same compound?
Answer: Its MIC is 9.4 µM (≈ 3.53 µg/mL).

Question: And the MIC ([6]; Mycobacterium tuberculosis, 168 h)?
Answer: The MIC was 6.25 µM (≈ 2.35 µg/mL).

Question: And the MIC [6, 13]?
Answer: Its MIC is 9.4 µM (≈ 3.53 µg/mL).

Question: And the MIC [6, 12]?
Answer: Its MIC is 12.5 µM (≈ 4.69 µg/mL).

Question: And the MIC ([6]; Table S1, H37Rv, […], 1 Week)?
Answer: Its MIC is 12.5 µM (≈ 4.69 µg/mL).

Question: What about the MIC ([7]; 168 h) of the same compound?
Answer: The MIC was 4.7 µM (≈ 1.76 µg/mL).

Question: What about the MIC ([7]; 336 h) of the same compound?
Answer: The MIC was 4.7 µM (≈ 1.76 µg/mL).

Question: And the MIC ([8]; 028K111, 168 h)?
Answer: Its MIC is 6.25 µM (≈ 2.35 µg/mL).

Question: What about the MIC ([8]; 028K111, 336 h) of the same compound?
Answer: Its MIC is 6.25 µM (≈ 2.35 µg/mL).

Question: And the MIC ([9]; 53K113, 168 h)?
Answer: Its MIC is 6.25 µM (≈ 2.35 µg/mL).

Question: What about the MIC ([9]; 53K113, 336 h) of the same compound?
Answer: The MIC was 6.25 µM (≈ 2.35 µg/mL).

Question: And the MIC ([10]; 168 h)?
Answer: The MIC was 6.25 µM (≈ 2.35 µg/mL).

Question: And the MIC ([10]; 336 h)?
Answer: Its MIC is 6.25 µM (≈ 2.35 µg/mL).

Question: What about the Kd [2] of the same compound?
Answer: The Kd was 3600 ± 200 nM.

Question: What about the Kd [11] of the same compound?
Answer: The Kd was 230 ± 50 nM.

Question: How did the Kd [1] turn out when `c1cc(-c2ccc3c(ccn3CCN3CCNCC3)c2)ccn1` [Compound 14] was run?
Answer: Its Kd is 11100 ± 500 nM.

Question: What about the Kd [2] of the same compound?
Answer: The Kd was 271000 ± 13000 nM.

Question: What does the source list for `CCOC(=O)c1cc2cc(-c3ccncc3)ccc2n1CC1CCC1` [Compound 9]?
Answer: Kd [1]: 90 ± 10 nM; Kd [2]: 1100 ± 200 nM

Question: Which Kd [1] does the source give for `NC(=O)c1cc2cc(-c3ccncc3)ccc2n1CC1CCCCC1` [Compound 13] here?
Answer: Its Kd is 30 ± 7 nM.

Question: And the Kd [2]?
Answer: The Kd was 450 ± 40 nM.
